Test results: ChEMBL document CHEMBL4130634, “Discovery of Reversible DNA Methyltransferase and Lysine Methyltransferase G9a Inhibitors with Antitumoral in Vivo Efficacy” (J Med Chem, 2018)

Columns and labels:
CYP2C19 = CYP2C19 (Homo sapiens, UniProt P33261); assay: Inhibition of CYP2C19 in human liver microsomes at 10 uM after 10 mins in presence of NADPH by LC-MS/MS analysis relative to control; type: ADME
[1] = Half life in human liver microsomes at 1 uM preincubated for 10 mins followed by NADP addition after 20 mins by LC-MS/MS analysis; type: ADME, microsome; details: liver microsomes
CYP1A2 = target: T1, CYP1A2 (Homo sapiens, UniProt P05177); assay: Inhibition of CYP1A2 in human liver microsomes at 10 uM after 10 mins in presence of NADPH by LC-MS/MS analysis relative to control; type: ADME
T1 sequence (P05177 whole entry): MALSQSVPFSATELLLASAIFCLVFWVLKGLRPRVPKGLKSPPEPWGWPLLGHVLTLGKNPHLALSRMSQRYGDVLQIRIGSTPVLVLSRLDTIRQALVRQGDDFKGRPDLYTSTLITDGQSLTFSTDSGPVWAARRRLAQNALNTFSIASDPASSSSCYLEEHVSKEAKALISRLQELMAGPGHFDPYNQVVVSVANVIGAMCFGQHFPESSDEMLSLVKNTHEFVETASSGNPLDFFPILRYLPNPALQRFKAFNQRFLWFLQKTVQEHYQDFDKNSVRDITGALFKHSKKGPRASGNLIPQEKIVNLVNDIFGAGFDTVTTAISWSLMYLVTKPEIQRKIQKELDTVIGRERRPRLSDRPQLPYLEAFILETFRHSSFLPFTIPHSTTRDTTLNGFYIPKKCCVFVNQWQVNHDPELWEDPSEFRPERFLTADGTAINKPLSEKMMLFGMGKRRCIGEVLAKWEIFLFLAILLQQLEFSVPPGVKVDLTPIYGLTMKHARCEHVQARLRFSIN

[2] = Half life in mouse liver microsomes at 1 uM preincubated for 10 mins followed by NADP addition after 20 mins by LC-MS/MS analysis; type: ADME, microsome
[3] = Volume of distribution at steady state in RARG2-/-gammac-/- Balb/c mouse at 5 mg/kg, iv administered as single dose by LC-MS/MS analysis; type: ADME, organism-based; details: in vivo, read-out: Vdss
[4] = Metabolic stability in mouse liver microsomes assessed as parent compound remaining at 1 uM preincubated for 10 mins followed by NADP addition after 20 mins by LC-MS/MS analysis; type: ADME, microsome; details: read-out: Stability
[5] = target: T2, Histone-lysine N-methyltransferase EHMT1 (Homo sapiens, UniProt Q9H9B1); assay: Inhibition of recombinant human GLP using histone H3 peptide as substrate after 120 mins in presence of [3H]SAM by radiometric assay
T2 sequence (Q9H9B1 whole entry): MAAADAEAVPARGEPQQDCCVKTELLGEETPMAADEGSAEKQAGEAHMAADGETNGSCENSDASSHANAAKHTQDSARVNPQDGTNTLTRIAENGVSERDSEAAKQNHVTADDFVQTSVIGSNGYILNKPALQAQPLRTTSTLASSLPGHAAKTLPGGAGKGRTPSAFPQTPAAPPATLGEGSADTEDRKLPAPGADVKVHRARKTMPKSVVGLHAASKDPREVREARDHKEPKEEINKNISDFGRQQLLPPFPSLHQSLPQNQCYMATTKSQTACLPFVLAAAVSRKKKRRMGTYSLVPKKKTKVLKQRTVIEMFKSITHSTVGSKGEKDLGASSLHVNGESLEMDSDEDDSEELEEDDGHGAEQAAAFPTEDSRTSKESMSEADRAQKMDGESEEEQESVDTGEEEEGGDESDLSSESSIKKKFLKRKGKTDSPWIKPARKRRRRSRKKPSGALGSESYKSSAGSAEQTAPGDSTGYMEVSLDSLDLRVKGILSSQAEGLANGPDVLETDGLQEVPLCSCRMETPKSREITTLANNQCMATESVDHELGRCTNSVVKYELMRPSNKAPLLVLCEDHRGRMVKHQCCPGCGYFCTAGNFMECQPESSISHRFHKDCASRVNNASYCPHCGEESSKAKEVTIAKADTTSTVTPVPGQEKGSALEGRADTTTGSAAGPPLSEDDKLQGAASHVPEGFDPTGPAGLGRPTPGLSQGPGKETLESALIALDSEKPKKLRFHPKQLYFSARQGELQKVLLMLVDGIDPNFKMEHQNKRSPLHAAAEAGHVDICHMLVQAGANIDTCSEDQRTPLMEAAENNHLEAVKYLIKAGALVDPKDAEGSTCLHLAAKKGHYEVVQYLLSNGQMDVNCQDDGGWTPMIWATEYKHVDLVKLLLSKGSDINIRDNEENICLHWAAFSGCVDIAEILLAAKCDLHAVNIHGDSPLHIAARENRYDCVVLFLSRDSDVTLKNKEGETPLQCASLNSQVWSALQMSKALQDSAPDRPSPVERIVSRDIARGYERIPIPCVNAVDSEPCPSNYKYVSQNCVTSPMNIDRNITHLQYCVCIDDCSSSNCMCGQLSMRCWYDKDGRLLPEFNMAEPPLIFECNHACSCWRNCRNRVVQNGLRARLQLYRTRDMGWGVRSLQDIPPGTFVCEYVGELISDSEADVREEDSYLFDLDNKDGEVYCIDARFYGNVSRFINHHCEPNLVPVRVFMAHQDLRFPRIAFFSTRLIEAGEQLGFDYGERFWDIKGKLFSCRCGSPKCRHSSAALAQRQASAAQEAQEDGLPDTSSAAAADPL

CYP3A4 = CYP3A4 (Homo sapiens, UniProt P08684); assay: Inhibition of CYP3A4 in human liver microsomes at 10 uM after 10 mins in presence of NADPH by LC-MS/MS analysis relative to control; type: ADME
Chain of CYP3A4 (P08684 whole entry): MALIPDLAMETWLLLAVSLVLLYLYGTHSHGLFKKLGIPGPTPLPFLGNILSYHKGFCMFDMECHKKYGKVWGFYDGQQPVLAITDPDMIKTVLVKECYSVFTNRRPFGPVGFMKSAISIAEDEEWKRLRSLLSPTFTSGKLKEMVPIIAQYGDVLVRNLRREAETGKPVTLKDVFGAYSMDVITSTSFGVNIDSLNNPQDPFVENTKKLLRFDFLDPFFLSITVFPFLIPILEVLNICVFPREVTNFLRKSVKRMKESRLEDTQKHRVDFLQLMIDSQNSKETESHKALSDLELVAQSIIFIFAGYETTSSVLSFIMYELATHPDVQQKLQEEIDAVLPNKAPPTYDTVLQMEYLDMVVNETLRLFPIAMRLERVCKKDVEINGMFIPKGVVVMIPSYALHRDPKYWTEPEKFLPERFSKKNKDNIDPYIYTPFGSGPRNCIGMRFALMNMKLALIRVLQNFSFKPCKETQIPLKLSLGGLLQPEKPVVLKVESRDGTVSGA

[6] = AUC (0 to 24 hrs) in RARG2-/-gammac-/- Balb/c mouse at 5 mg/kg, iv administered as single dose by LC-MS/MS analysis; type: ADME, organism-based; design: dose 5 mg/kg, time < 24 hr, route intravenous; details: in vivo
THLE-2 = assay: Growth inhibition of human THLE2 cells after 72 hrs by MTS assay; type: cell-based; details: thle-2, 72 h
CYP2D6 = CYP2D6 (Homo sapiens, UniProt P10635); assay: Inhibition of CYP2D6 in human liver microsomes at 10 uM after 10 mins in presence of NADPH by LC-MS/MS analysis relative to control; type: ADME
Chain of CYP2D6 (P10635 whole entry): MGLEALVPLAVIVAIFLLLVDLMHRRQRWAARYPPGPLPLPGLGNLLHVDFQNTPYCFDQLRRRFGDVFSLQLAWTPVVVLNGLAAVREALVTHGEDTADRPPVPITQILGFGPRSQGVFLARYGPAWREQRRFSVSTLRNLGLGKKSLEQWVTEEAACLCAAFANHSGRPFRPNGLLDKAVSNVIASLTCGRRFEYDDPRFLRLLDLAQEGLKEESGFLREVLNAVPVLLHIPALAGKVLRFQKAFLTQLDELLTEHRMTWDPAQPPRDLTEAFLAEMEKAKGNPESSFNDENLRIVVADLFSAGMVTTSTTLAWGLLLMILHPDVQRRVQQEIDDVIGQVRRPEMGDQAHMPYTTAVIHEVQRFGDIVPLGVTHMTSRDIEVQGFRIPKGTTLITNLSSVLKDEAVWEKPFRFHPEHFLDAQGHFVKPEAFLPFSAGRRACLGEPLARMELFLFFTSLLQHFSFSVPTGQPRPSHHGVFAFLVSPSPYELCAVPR

[7] = Permeability of the compound at 50 uM after 18 hrs by PAMPA; type: ADME; details: read-out: permeability
[8] = Metabolic stability in human liver microsomes assessed as parent compound remaining at 1 uM preincubated for 10 mins followed by NADP addition after 20 mins by LC-MS/MS analysis; type: ADME, microsome; details: liver microsomes, read-out: Stability
CYP2C9 = CYP2C9 (Homo sapiens, UniProt P11712); assay: Inhibition of CYP2C9 in human liver microsomes at 10 uM after 10 mins in presence of NADPH by LC-MS/MS analysis relative to control; type: ADME
Chain of CYP2C9 (P11712 whole entry): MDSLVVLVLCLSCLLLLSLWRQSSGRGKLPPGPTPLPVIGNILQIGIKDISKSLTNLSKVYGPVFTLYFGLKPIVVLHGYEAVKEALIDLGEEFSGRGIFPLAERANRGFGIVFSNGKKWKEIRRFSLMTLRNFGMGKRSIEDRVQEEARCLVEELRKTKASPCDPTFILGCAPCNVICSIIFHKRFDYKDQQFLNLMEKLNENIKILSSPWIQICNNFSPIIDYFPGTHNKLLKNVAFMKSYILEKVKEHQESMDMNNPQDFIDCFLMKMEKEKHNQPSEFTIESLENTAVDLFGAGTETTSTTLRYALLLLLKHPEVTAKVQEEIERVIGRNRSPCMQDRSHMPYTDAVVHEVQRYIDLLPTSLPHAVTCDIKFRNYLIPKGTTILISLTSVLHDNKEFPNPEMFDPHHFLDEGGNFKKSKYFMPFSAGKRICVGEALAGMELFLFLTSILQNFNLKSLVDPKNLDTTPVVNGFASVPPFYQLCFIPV

MV4-11 = assay: Growth inhibition of human MV4-11 cells after 48 hrs by MTS assay; type: functional; details: MV4-11, 48 h
OCI-Ly3 = assay: Growth inhibition of human OCI-LY3 cells after 48 hrs by MTS assay; type: functional; details: OCI-Ly3, 48 h
[9] = Growth inhibition of human CEMO1 cells after 48 hrs by MTS assay; type: functional

Chain of CYP2C19 (P33261 whole entry): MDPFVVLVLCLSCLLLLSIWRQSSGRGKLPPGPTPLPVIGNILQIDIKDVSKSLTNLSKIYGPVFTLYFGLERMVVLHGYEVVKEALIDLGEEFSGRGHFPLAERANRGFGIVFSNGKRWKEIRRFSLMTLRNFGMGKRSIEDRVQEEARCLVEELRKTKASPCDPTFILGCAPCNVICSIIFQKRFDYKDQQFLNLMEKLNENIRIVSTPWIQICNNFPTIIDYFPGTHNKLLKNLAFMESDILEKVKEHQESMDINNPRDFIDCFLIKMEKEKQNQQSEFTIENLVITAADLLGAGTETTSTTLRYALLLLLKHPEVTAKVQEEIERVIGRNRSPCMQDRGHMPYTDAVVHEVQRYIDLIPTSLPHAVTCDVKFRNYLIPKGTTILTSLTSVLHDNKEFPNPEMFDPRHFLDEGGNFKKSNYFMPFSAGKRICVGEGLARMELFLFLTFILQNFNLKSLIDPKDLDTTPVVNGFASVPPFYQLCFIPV

For `COc1cc2c(NC3CCN(C4CC4)CC3)cc(-c3ccc(C)o3)nc2cc1OCCCN1CCCC1`, the inhibition at 10 min, 10 µM (CYP2C19) was 4%, the half-life at 1 µM [1] was greater than 144 min and the inhibition at 10 min, 10 µM (CYP1A2) was 28.6%. It also gave a half-life at 1 µM [2] of 6 min, a Vd [3] of 11.9 L/kg and a remaining at 20 min, 1 µM [4] of 15%. It also gave an IC50 [5] greater than 20 µM, an inhibition at 10 min, 10 µM (CYP3A4) of 4.6% and an AUC(0-t) at 24 h [6] of 8.79 µM·h. It also gave an LC50 (THLE-2) of 455 nM, an inhibition at 10 min, 10 µM (CYP2D6) of 27.6% and a Papp at 18 h, 50 µM [7] of 4.04 ×10⁻⁶ cm/s. The remaining at 20 min, 1 µM [8] was 97%, the inhibition at 10 min, 10 µM (CYP2C9) was 8% and the GI50 (MV4-11) was 1590 nM. For the same compound, the GI50 (OCI-Ly3) was 187 nM and the GI50 [9] was 453 nM.
